Reference: patent US20240158754A1, “REDUCING HIGH MANNOSE GLYCAN PROTEIN EXPRESSION USING GUANOSINE 5'-MONOPHOSPHATE” (MERCK SHARP & DOHME LLC, priority 2021, published 2024)
Entries after “also recorded” stand apart in the source; their conditions may differ.

Key:
Format in all cases: cell-based, Chinese hamster
[1] = test system: recombinant CHO cell line expressing mAb C; test: 10-day fed-batch assay of eighteen components (Example 1); conditions: mAb C cell line (Table 4, untitled)
Protocol: (§1) Experiment was executed by dividing into 6-blocks. In each experiment block, 3 unique test components were assessed and control conditions with no added test component were included for all three cell lines. Cells were cultured in Merck proprietary chemically defined media in increasing volume to obtain sufficient number of cells for inoculation. […] Merck proprietary chemically defined nutrient feed media were added to all the cultures on day 3, day 6, and day 8. On Day 6, cells from both 1 L flasks for each cell line were pooled and then aliquoted in 125 mL Erlenmeyer flasks with 30 mL working volume, respectively. Stock solutions for each of the tested component were prepared as defined in Table 1 below, and all components were ordered from Sigma Aldrich (St. Louis, MO). Component 6 is GMP. All solutions were prepared in purified water. For each cell line, components were added to the cultures at final concentration at a lower and higher concentrations as per Table 1, respectively, on day 6 of the fed-batch culture. […] A control condition with no added test component was also created for each cell line. All conditions were run with two replicates. All cultures were harvested on day 10.
(§2) Cell culture parameters were analyzed on day 0, 3, 6, 8 and 10, and the corresponding spent medium supernatants were evaluated for antibody titer, charge variants and glycan analysis on day 10 to assess the effect of added components on cell growth, viability, titer, aggregation, charge variants and glycan profile of the recombinant antibodies. Cell density and viability were measured using the trypan blue exclusion method with Cedex Bio Analyzer (Roche Diagnostics GmbH, Mannheim, Germany). Culture pH was measured using ABL80 Blood/Gas Analyzer (Radiometer, Denmark).
(§3) Antibody titer was analyzed using a mAb-specific reverse-phase high-performance liquid chromatography (HPLC) or analytical Protein A HPLC method. Multiple product quality attributes were analyzed on harvested cell-culture fluid (HCCF) after a Protein A chromatography step. Analysis of HMW species was performed by size-exclusion chromatography, analysis of charge variants was performed by ion exchange chromatography, and analysis of N-glycan was performed by ultra-performance liquid chromatography (UPLC) with 2-aminobenzamide (2-AB) labeling.
(§4) Data generated from all 6 blocks for all tested components (excluding component 9 and 12) were transformed using a dimensionless number, which is termed as Concentration Impact Factor, and abbreviated as Cf. Cf provides a score value for impact of change in component's concentration on desired response when tested at different concentrations. The equation used to transform data to calculate Cf is described below as equation 1. The first part of the equation represents a directional vector, which determines whether increasing the component concentration from a lower value to a higher value results in a positive or negative response for the measure attribute. The second part of the equation then calculates the magnitude of that change as the concentration changes from low to high.
(§5) wherein, • Cf. Concentration impact factor (dimensionless number) • H: Response for a measured attribute when component is added at a higher concentration • L: Response for a measured attribute when component is added at a lower concentration • C: Response for a measured attribute […] • hc: high concentration (mM) of the component added • lc: low concentration (mM) of the component added

[2] = test system: recombinant CHO cell line expressing mAb A; test: as above; conditions: for Relative IVCC (% to Control): added day 6, harvest day 10; for Relative IVCC (% to Control) / Relative Titer (% to Control) / Relative Viability (% to Control): mAb A cell line
Protocol: as §1, §2, §3, §4, §5

[3] = test system: recombinant CHO cell line expressing mAb B; test: as above
Protocol: as §1, §2, §3, §4, §5

[4] = test system: recombinant CHO cell line expressing mAb C; test: 10-day fed-batch assay with GMP (Example 2)
Protocol: (§6) Cells were cultured in Merck proprietary chemically defined media in increasing volume to obtain sufficient number of cells for inoculation. For cell lines expressing mAb A and mAb B, cells were seeded at 0.5×10^6 cells per mL into Merck proprietary chemically defined production medium in two 1 L Erlenmeyer flasks at a final volume of 250 mL in each flask. For cell line expressing mAb C, cells were seeded at 1.0×10^6 cells per mL into production medium in two 1 L Erlenmeyer flasks at a final volume of 250 mL in each flask. Cells were incubated at 36.5° C., with agitation at 100 rpm, in presence of 5% CO2, and humidity ≥70%. Merck proprietary chemically defined nutrient feed media were added to all the cultures on day 3, day 6, and day 8. On Day 6, cells from both 1 L flasks for each cell line were pooled and then aliquoted in 125 mL Erlenmeyer flasks with 30 mL working volume, respectively. A 200 mM stock solution of GMP was prepared by adding Guanosine 5′-monophosphate disodium salt hydrate (Sigma Aldrich, St. Louis, MO) in purified water. After the cells were aliquoted in separate 125 mL test flasks on day 6, GMP was added to the cultures at final concentration of 1 mM or 10 mM. No change in pH and osmolality was observed as a result of the GMP addition. A control condition with no added GMP was also created for each cell line. All conditions were run with two replicates. All cultures were harvested on day 10.
as §2, with “variants,” for “variants”, “GMP” for “added components”, “titer,” for “titer, aggregation, charge variants”, “Denmark). Cell culture metabolites were measured using RX Imola (Randox Laboratories Ltd. Crumlin, UK) and osmolality was measured using a micro-Osmometer 2020 (Advanced Instruments, Norwood, MA).” for “Denmark).”
as §3

[5] = test system: recombinant CHO cell line expressing mAb A; test: 10-day fed-batch assay with GMP (Example 2)
Protocol: as §6
as §2, with “variants,” for “variants”, “GMP” for “added components”, “titer,” for “titer, aggregation, charge variants”, “Denmark). Cell culture metabolites were measured using RX Imola (Randox Laboratories Ltd. Crumlin, UK) and osmolality was measured using a micro-Osmometer 2020 (Advanced Instruments, Norwood, MA).” for “Denmark).”
as §3

[6] = test system: recombinant CHO cell line expressing mAb B; test: 10-day fed-batch assay with GMP (Example 2)
Protocol: as §6
as §2, with “variants,” for “variants”, “GMP” for “added components”, “titer,” for “titer, aggregation, charge variants”, “Denmark). Cell culture metabolites were measured using RX Imola (Randox Laboratories Ltd. Crumlin, UK) and osmolality was measured using a micro-Osmometer 2020 (Advanced Instruments, Norwood, MA).” for “Denmark).”
as §3

[7] = test system: recombinant CHO cell lines expressing monoclonal antibodies (mAb A, mAb B, or mAb C); test: 10-day fed-batch assay of eighteen components (Example 1), statements for all cell lines; conditions: among the 18 tested components
Protocol: Experiment was executed by dividing into 6-blocks. In each experiment block, 3 unique test components were assessed and control conditions with no added test component were included for all three cell lines. Cells were cultured in Merck proprietary chemically defined media in increasing volume to obtain sufficient number of cells for inoculation. For cell lines expressing mAb A and mAb B, cells were seeded at 0.5×10^6 cells per mL into Merck proprietary chemically defined production medium in two 1 L Erlenmeyer flasks at a final volume of 250 mL in each flask. […]
as §2, with “Denmark). Cell culture metabolites were measured using RX Imola (Randox Laboratories Ltd. Crumlin, UK) and osmolality was measured using a micro-Osmometer 2020 (Advanced Instruments, Norwood, MA). […]” for “Denmark).”

[8] = test system: recombinant CHO cell lines expressing monoclonal antibodies (mAb A, mAb B, or mAb C); test: 10-day fed-batch assay with GMP (Example 2), statements for all cell lines
Protocol: as §6
as §2, with “variants,” for “variants”, “GMP” for “added components”, “titer,” for “titer, aggregation, charge variants”, “Denmark). Cell culture metabolites were measured using RX Imola (Randox Laboratories Ltd. Crumlin, UK) and osmolality was measured using a micro-Osmometer 2020 (Advanced Instruments, Norwood, MA).” for “Denmark).”
as §3

[9] = Higher Concentration per Table 1
[10] = Lower Concentration per Table 1

SMILES: Nc1nc2c(ncn2[C@@H]2O[C@H](COP(=O)(O)O)[C@@H](O)[C@H]2O)c(=O)[nH]1 [Component 6, Guanosine 5′-monophosphate]
- Relative IVCC (% to Control) [1, 9]: 79.88 % to Control
- Relative Titer (% to Control) [1, 9]: 103.8 % to Control
- Relative Viability (% to Control) [1, 9]: 87.81 % to Control
- Relative IVCC (% to Control) [1, 10]: 97.24 % to Control
- Relative Titer (% to Control) [1, 10]: 102.19 % to Control
- Relative Viability (% to Control) [1, 10]: 99.25 % to Control
- Relative IVCC (% to Control) ([2]; Higher Concentration per Table 1 (GMP 10 mM)): 95.08 % to Control
- Relative Titer (% to Control) [2, 9]: 96.14 % to Control
- Relative Viability (% to Control) [2, 9]: 91.8 % to Control
- Relative IVCC (% to Control) ([2]; Lower Concentration per Table 1 (GMP 1 mM)): 100.61 % to Control
- Relative Titer (% to Control) [2, 10]: 101.88 % to Control
- Relative Viability (% to Control) [2, 10]: 96.75 % to Control
- dose dependent change in Man 5 peak (Cf) ([2]; mAb A, lower vs higher concentration): largest dose dependent decrease in Man 5 peak
- Relative IVCC (% to Control) [3, 9]: 90.77 % to Control
- Relative Titer (% to Control) [3, 9]: 94.86 % to Control
- Relative Viability (% to Control) [3, 9]: 95.28 % to Control
- Relative IVCC (% to Control) [3, 10]: 96.14 % to Control
- Relative Titer (% to Control) [3, 10]: 100.81 % to Control
- Relative Viability (% to Control) [3, 10]: 100.77 % to Control
- Cumulative Titer ([4]; GMP 1 mM): 690 mg/L
- Final viability ([4]; GMP 1 mM): 98.5%
- IVCC ([4]; GMP 1 mM): 86.5 10^6 cells · Day/mL
- high mannose glycans ([4]; GMP 1 mM): slight decrease
- Cumulative Titer ([4]; GMP 10 mM): 701 mg/L
- Final viability ([4]; GMP 10 mM): 86.3%
- IVCC ([4]; GMP 10 mM): 71.1 10^6 cells · Day/mL
- cell growth ([4]; GMP 10 mM): considerable decrease
- Man 5 (HMG level, value relative to control) ([4]; GMP final concentration 1 mM): 0.98
- Man 5 (HMG level, value relative to control) ([4]; GMP final concentration 10 mM): 0.68
- Cumulative Titer ([5]; GMP 1 mM): 158 mg/L
- Final viability ([5]; GMP 1 mM): 85.5%
- IVCC ([5]; GMP 1 mM): 46.4 10^6 cells · Day/mL
- high mannose glycans ([5]; GMP 1 mM): slight decrease
- Cumulative Titer ([5]; GMP 10 mM): 167 mg/L
- Final viability ([5]; GMP 10 mM): 77.4%
- IVCC ([5]; GMP 10 mM): 44.3 10^6 cells · Day/mL
- cell growth ([5]; GMP 10 mM): slight decrease
- Man 5 (HMG level, value relative to control) ([5]; GMP final concentration 1 mM): 0.97
- Total HMG (value relative to control) ([5]; GMP final concentration 1 mM): 0.96
- Man 5 (HMG level, value relative to control) ([5]; GMP final concentration 10 mM): 0.76
- Total HMG (value relative to control) ([5]; GMP final concentration 10 mM): 0.76
- Cumulative Titer ([6]; GMP 1 mM): 314 mg/L
- Final viability ([6]; GMP 1 mM): 86.9%
- IVCC ([6]; GMP 1 mM): 52.7 10^6 cells · Day/mL
- Cumulative Titer ([6]; GMP 10 mM): 296 mg/L
- Final viability ([6]; GMP 10 mM): 82.1%
- IVCC ([6]; GMP 10 mM): 49.7 10^6 cells · Day/mL
- cell growth ([6]; GMP 10 mM): slight decrease
- Man 5 (HMG level, value relative to control) ([6]; GMP final concentration 1 mM): 1.02
- Total HMG (value relative to control) ([6]; GMP final concentration 1 mM): 1.01
- Man 5 (HMG level, value relative to control) ([6]; GMP final concentration 10 mM): 0.91
- Total HMG (value relative to control) ([6]; GMP final concentration 10 mM): 0.90
- overall HMG content, in particular Man 5 species, of the monoclonal antibodies produced [7]: reduced
- higher order mannose structures [8]: slight decrease
- impact on cell culture parameters ([8]; GMP 1 mM): no impact
- HMG content on the recombinant antibodies ([8]; GMP 1 mM and 10 mM): dose dependent decrease
- high mannose ([8]; GMP 10 mM, all cell lines): large decreases
- Man 5 content ([8]; mAb A, mAb B, and mAb C, listed as GMP): major high mannose species downregulated; also recorded: dose dependent decrease
- cell culture performance parameters (IVCC, final viability, titer, ammonia, lactate) ([8]; three CHO cell lines): did not significantly affect
